Source: US20140073634A1 (Institute For Applied Cancer Science/The University of …, priority 2012, published 2014)

System: 293T-HRE-GFP-luc cells
Experiment: Cell-based reporter assay for IC50 determinations (HRE-luciferase, hypoxia)
Details: 6 h, 6 hrs hypoxia (1% O2), luminescence
How it was run: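 IC50s come from four-parameter logistic fits of luminescence. Compounds in 1:3 DMSO series were added to 293T-HRE-GFP-luc cells, 30 min normoxia preceding 6 hrs at 1% O2, 37° C; HRE-luciferase signal was then measured with Steadylite Plus reagent.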

Structure (SMILES) | IC50 [nM]
N#Cc1cccc(Cn2nc(-c3nc(-c4ccc(OC(F)(F)F)cc4)no3)ccc2=O)c1 [Example 120, 3-((6-oxo-3-(3-(4-(trifluoromethoxy)phenyl)-1,2,4-oxadiazol-5-yl)pyridazin-1(6H)-yl)methyl)benzonitrile] | < 100
COc1cccc(Cn2cc(-c3nc(-c4ccc(OC(F)(F)F)cc4)no3)ccc2=O)c1 [Example 121, 1-(3-methoxybenzyl)-5-(3-(4-(trifluoromethoxy)phenyl)-1,2,4-oxadiazol-5-yl)pyridin-2(1H)-one] | < 100
N#Cc1cccc(Cn2cc(-c3nc(-c4ccc(OC(F)(F)F)cc4)no3)ccc2=O)c1 [Example 122, 3-((2-oxo-5-(3-(4-(trifluoromethoxy)phenyl)-1,2,4-oxadiazol-5-yl)pyridin-1(2H)-yl)methyl)benzonitrile] | < 100
CS(=O)(=O)c1cccc(Cn2cc(-c3nc(-c4ccc(OC(F)(F)F)cc4)no3)ccc2=O)c1 [Example 123, 1-(3-(methylsulfonyl)benzyl)-5-(3-(4-(trifluoromethoxy)phenyl)-1,2,4-oxadiazol-5-yl)pyridin-2(1H)-one] | < 100
NS(=O)(=O)c1cccc(Cn2cc(-c3nc(-c4ccc(OC(F)(F)F)cc4)no3)ccc2=O)c1 [Example 124, 3-((2-oxo-5-(3-(4-(trifluoromethoxy)phenyl)-1,2,4-oxadiazol-5-yl)pyridin-1(2H)-yl)methyl)benzenesulfonamide] | < 100
CN1CCN(C(=O)c2cc(Cn3nc(-c4nc(-c5ccc(OC(F)(F)F)cc5)no4)ccc3=O)ccn2)CC1 [Example 125, 2-((2-(4-methylpiperazine-1-carbonyl)pyridin-4-yl)methyl)-6-(3-(4-(trifluoromethoxy)phenyl)-1,2,4-oxadiazol-5-yl)pyridazin-3(2H)-one] | 1000 to 10000
COC(=O)c1cc(Cn2nc(-c3nc(-c4ccc(OC(F)(F)F)cc4)no3)ccc2=O)ccc1F [Example 126, methyl 2-fluoro-5-((6-oxo-3-(3-(4-(trifluoromethoxy)phenyl)-1,2,4-oxadiazol-5-yl)pyridazin-1(6H)-yl)methyl)benzoate] | < 100
O=c1c(-c2nc(-c3ccc(OC(F)(F)F)cc3)no2)cccn1Cc1ccnc(N2CCOCC2)c1 [Example 127, 1-((2-morpholinopyridin-4-yl)methyl)-3-(3-(4-(trifluoromethoxy)phenyl)-1,2,4-oxadiazol-5-yl)pyridin-2(1H)-one] | 100 to 1000
Cc1ccc(-c2nc(-c3ccc(OC(F)(F)F)cc3)no2)c(=O)n1Cc1cccc(C(=O)N(C)C)c1 [Example 128, N,N-dimethyl-3-((6-methyl-2-oxo-3-(3-(4-(trifluoromethoxy)phenyl)-1,2,4-oxadiazol-5-yl)pyridin-1(2H)-yl)methyl)benzamide] | 100 to 1000
O=C(c1cc(Cn2nc(-c3nc(-c4ccc(OC(F)(F)F)cc4)no3)ccc2=O)ccc1F)N1CCOCC1 [Example 129, 2-{[4-fluoro-3-(morpholine-4-carbonyl)phenyl]methyl}-6-{3-[4-(trifluoromethoxy)phenyl]-1,2,4-oxadiazol-5-yl}-2,3-dihydropyridazin-3-one] | 100 to 1000
CN1CCN(C(=O)c2cc(Cn3nc(-c4nc(-c5ccc(OC(F)(F)F)cc5)no4)ccc3=O)ccc2F)CC1 [Example 130, 2-{[4-fluoro-3-(4-methylpiperazine-1-carbonyl)phenyl]methyl}-6-{3-[4-(trifluoromethoxy)phenyl]-1,2,4-oxadiazol-5-yl}-2,3-dihydropyridazin-3-one] | 100 to 1000
CNC(=O)c1cccc(Cn2nc(-c3nc(-c4ccc(OC(F)(F)F)cc4)no3)ccc2=O)c1 [Example 131, N-methyl-3-[(6-oxo-3-{3-[4-(trifluoromethoxy)phenyl]-1 2 4-oxadiazol-5-yl}-1 6-dihydropyridazin-1-yl)methyl]benzamide] | < 100
NC(=O)c1cccc(Cn2nc(-c3nc(-c4ccc(OC(F)(F)F)cc4)no3)ccc2=O)c1 [Example 132, 3-[(6-oxo-3-{3-[4-(trifluoromethoxy)phenyl]-1,2,4-oxadiazol-5-yl}-1,6-dihydropyridazin-1-yl)methyl]benzamide] | < 100
CNC(=O)c1cccc(Cn2cc(-c3nc(-c4ccc(OC(F)(F)F)cc4)no3)ccc2=O)c1 [Example 133, N-methyl-3-[(2-oxo-5-{3-[4-(trifluoromethoxy)phenyl]-1,2,4-oxadiazol-5-yl}-1,2-dihydropyridin-1-yl)methyl]benzamide] | < 100
CN(C)C(=O)c1cccc(Cn2cc(-c3nc(-c4ccc(OC(F)(F)F)cc4)no3)ccc2=O)c1 [Example 134, N,N-dimethyl-3-[(2-oxo-5-{3-[4-(trifluoromethoxy)phenyl]-1,2,4-oxadiazol-5-yl}-1,2-dihydropyridin-1-yl)methyl]benzamide] | < 100
O=c1ccc(-c2nc(-c3ccc(OC(F)(F)F)cc3)no2)cn1Cc1ccc(F)c(Br)c1 [Example 135, 1-[(3-bromo-4-fluorophenyl)methyl]-5-{3-[4-(trifluoromethoxy)phenyl]-1,2,4-oxadiazol-5-yl}-1,2-dihydropyridin-2-one] | 100 to 1000

Structure (SMILES) | IC50 [nM]
COc1ccc(Cn2cc(-c3nc(-c4ccc(OC(F)(F)F)cc4)no3)ccc2=O)cc1 [Example 136, 1-[(4-methoxyphenyl)methyl]-5-{3-[4-(trifluoromethoxy)phenyl]-1,2,4-oxadiazol-5-yl}-1,2-dihydropyridin-2-one] | < 100
CN1CCN(c2cc(Cn3cc(-c4nc(-c5ccc(OC(F)(F)F)cc5)no4)ccc3=O)ccc2F)CC1 [Example 137, 1-{[4-fluoro-3-(4-methylpiperazin-1-yl)phenyl]methyl}-5-{3-[4-(trifluoromethoxy)phenyl]-1,2,4-oxadiazol-5-yl}-1,2-dihydropyridin-2-one] | < 100
O=c1ccc(-c2nc(-c3ccc(OC(F)(F)F)cc3)no2)cn1Cc1ccc(F)c(N2CCOCC2)c1 [Example 138, 1-{[4-fluoro-3-(morpholin-4-yl)phenyl]methyl}-5-{3-[4-(trifluoromethoxy)phenyl]-1,2,4-oxadiazol-5-yl}-1,2-dihydropyridin-2-one] | < 100
O=c1ccc(-c2nc(-c3ccc(OC(F)(F)F)cc3)no2)cn1Cc1ccc(F)c(N2CCC(O)CC2)c1 [Example 139, 1-{[4-fluoro-3-(4-hydroxypiperidin-1-yl)phenyl]methyl}-5-{3-[4-(trifluoromethoxy)phenyl]-1,2,4-oxadiazol-5-yl}-1,2-dihydropyridin-2-one] | < 100
CNC(=O)c1cc(Cn2nc(-c3nc(-c4ccc(OC(F)(F)F)cc4)no3)ccc2=O)ccc1F [Example 140, 2-fluoro-N-methyl-5-[(6-oxo-3-{3-[4-(trifluoromethoxy)phenyl]-1,2,4-oxadiazol-5-yl}-1,6-dihydropyridazin-1-yl)methyl]benzamide] | < 100
O=c1ccc(-c2nc(-c3ccc(OC(F)(F)F)cc3)no2)cn1Cc1cccc(Br)c1 [Example 141, 1-[(3-bromophenyl)methyl]-5-{3-[4-(trifluoromethoxy)phenyl]-1,2,4-oxadiazol-5-yl}-1,2-dihydropyridin-2-one] | 100 to 1000
O=C(Cc1cccc(Cn2nc(-c3nc(-c4ccc(OC(F)(F)F)cc4)no3)ccc2=O)c1)N1CCOCC1 [Example 142, 2-({3-[2-(morpholin-4-yl)-2-oxoethyl]phenyl}methyl)-6-{3-[4-(trifluoromethoxy)phenyl]-1,2,4-oxadiazol-5-yl}-2,3-dihydropyridazin-3-one] | 100 to 1000
CN1CCN(C(=O)Cc2cccc(Cn3nc(-c4nc(-c5ccc(OC(F)(F)F)cc5)no4)ccc3=O)c2)CC1 [Example 143, 2-({3-[2-(4-methylpiperazin-1-yl)-2-oxoethyl]phenyl}methyl)-6-{3-[4-(trifluoromethoxy)phenyl]-1,2,4-oxadiazol-5-yl}-2,3-dihydropyridazin-3-one] | 100 to 1000
O=c1ccc(-c2nc(-c3ccc(OC(F)(F)F)cc3)no2)cn1Cc1cccc(N2CCOCC2)c1 [Example 144, 1-{[3-(morpholin-4-yl)phenyl]methyl}-5-{3-[4-(trifluoromethoxy)phenyl]-1,2,4-oxadiazol-5-yl}-1,2-dihydropyridin-2-one] | < 100
CN(C)c1cccc(Cn2cc(-c3nc(-c4ccc(OC(F)(F)F)cc4)no3)ccc2=O)c1 [Example 145, 1-{[3-(dimethylamino)phenyl]methyl}-5-{3-[4-(trifluoromethoxy)phenyl]-1,2,4-oxadiazol-5-yl}-1,2-dihydropyridin-2-one] | < 100
O=c1ccc(-c2nc(-c3ccc(OC(F)(F)F)cc3)no2)cn1Cc1cccc([N+](=O)[O-])c1 [Example 146, 1-[(3-nitrophenyl)methyl]-5-{3-[4-(trifluoromethoxy)phenyl]-1,2,4-oxadiazol-5-yl}-1,2-dihydropyridin-2-one] | 100 to 1000
O=c1ccc(-c2nc(-c3ccc(OC(F)(F)F)cc3)no2)cn1Cc1cccc(OCCO)c1 [Example 147, 1-{[3-(2-hydroxyethoxy)phenyl]methyl}-5-{3-[4-(trifluoromethoxy)phenyl]-1,2,4-oxadiazol-5-yl}-1,2-dihydropyridin-2-one] | < 100
CCOc1cccc(Cn2cc(-c3nc(-c4ccc(OC(F)(F)F)cc4)no3)ccc2=O)c1 [Example 148, 1-[(3-ethoxyphenyl)methyl]-5-{3-[4-(trifluoromethoxy)phenyl]-1,2,4-oxadiazol-5-yl}-1,2-dihydropyridin-2-one] | < 100
CN(C)C(=O)COc1cccc(Cn2cc(-c3nc(-c4ccc(OC(F)(F)F)cc4)no3)ccc2=O)c1 [Example 149, N,N-dimethyl-2-{3-[(2-oxo-5-{3-[4-(trifluoromethoxy)phenyl]-1,2,4-oxadiazol-5-yl}-1,2-dihydropyridin-1-yl)methyl]phenoxy}acetamide] | < 100
CC(C)(C)OC(=O)NCCOc1cccc(Cn2cc(-c3nc(-c4ccc(OC(F)(F)F)cc4)no3)ccc2=O)c1 [Example 150, tert-butyl N-(2-{3-[(2-oxo-5-{3-[4-(trifluoromethoxy)phenyl]-1,2,4-oxadiazol-5-yl}-1,2-dihydropyridin-1-yl)methyl]phenoxy}ethyl)carbamate] | < 100
